Measurements: patent publication US7250397B2, “Antiarrhythmic peptides” (Zealand Pharma A/S, priority 2000, dated 2007)

What was measured:
[1] = tested on: phospho-inositol turnover in neonatal rat cardiomyocytes; assay: Phosphoinositol turnover in rat primary cardiomyocytes; assay type: cell-based; settings: 100 nM; control conditions
Description: Neonatal Wistar rats (1-2 days old) are used. Hank's calcium- and magnesium-free balanced salt solution, buffered with 10 mM HEPES is used for washing during cell separation procedures. The hearts are excised, the ventricles isolated and the tissue cut into small pieces. The myocardial cells are isolated by stepwise enzymatic degradation with collagenase 0.05%, as described by^[35]. After repeated rounds of centrifugation and washing, the precipitated cells are resuspended in culture medium M199 with Earle's salt, 10% NCS, penicillin (75 U/mL), and streptomycin (75 U/mL) and pre-plated in a Petri dish for 90 minutes. The non-adherent cells are collected in the culture medium and plated in multidishes at 2.5*10^5 cells/well. The cultures are kept in a water-saturated CO2-incubator at 37° C. The cardiomyocyte cultures are used for analyses after 6-7 days.
Cardiomyocyte cultures are incubated for 48 hours in culture medium containing […] myo-[2-^3H]inositol to label the inositol phospholipids. On the day of analysis the medium is replaced by a buffer solution containing lithium and incubated at 37° C., as described by Meier et al.^[36]. After at least five minutes this buffer is replaced by the same volume of buffer containing test compound and incubated for exactly 20 minutes. The reaction is stopped by rapid replacement of the buffer by ice cold 4% v/v perchloric acid (PCA) and incubation for at least 20 minutes at 0° C. The PCA-extract is neutralised and the [^3H]inositol phosphates are separated by anion-exchange chromatography using Amprep™ columns containing 100 mg SAX Quaternary amine. The [^3H]inositol mono-phosphates are eluted and radioactivity in the fraction measured by liquid scintillation counting.
Before adding test substances to the cultures, the cells are depleted of glucose and oxygen by incubating them in a N2-atmosphere in glucose-free lithium-buffer for 10 minutes at 37° C. Control cells are incubated likewise only at normal atmospheric conditions and in a buffer containing glucose.

[2] = tested on: calcium-induced arrythmias; assay: Calcium-induced arrhythmia model in mice; assay type: in vivo; settings: mouse, in vivo, iv
Description: The antiarrhythmic effects of compounds of this invention were tested in an in vivo model of calcium-induced arrythmias according to the model of Lynch et al.^[37]. […]. Commercial solutions of hypnorm and midazolam were diluted 1:1 in distilled water and one part diluted Hypnorm® is mixed with one part diluted midazolam.
The anaesthesia was induced by s.c. administration in a dose of 0.05-0.075 μl/10 gram mouse. An i.v cannula was inserted into the tail vein. The lead II ECG signal was recorded continuously by positioning of a stainless steel ECG electrodes on the right forelimb and on the left hind limb. The ground electrode was placed on the right hind limb. The signal was amplified (x 5.000-10.000) and filtered (0.1-150 Hz) via a Hugo Sachs Electronic model 689 ECG module. The analogue signal was digitised via a 12 bit data acquisition board (Data Translation model DT321) and sampled at 1000 Hz using the Notocord HEM 3.1 software for Windows NT. After a 10-min equilibration period, the test sample of drug was injected into the tail vein. Mice pre-treated with vehicle were tested as a measure of the control level in untreated animals. The injection volume was 100 μl in all experiments. Infusion of CaCl2 (30 mg/ml, 0.1 ml/min≈100 mg/kg/min (calciumchlorid-2-hydrat, Riedel-de Häen, Germany)) was started 3 min after i.v. administration of drug or vehicle. The time lag to onset of 2nd degree AV-block was determined as the time from the start of CaCl2 infusion until the first arrhythmic event occured. An event of 2nd degree AV-block was defined as intermittent failure of the AV conduction characterised by a P-wave without the concomitant QRS complex.
Responses were expressed relative to the time until 2nd degree AV-block occurred in vehicle treated mice.

human osteoblast = assay: Lucifer Yellow dye transfer in human osteoblasts; assay type: cell-based; settings: 10 minutes; after 48 hours hypoxia 3-6% O2 (7 cells before)
Description: Human osteblast cells (hOB): Cells were isolated from human bone marrow obtained by puncture of the posterior iliac spine of healthy volunteers (aged 20-36): 10-15 ml marrow material was collected in 15 ml PBS+Ca,Mg (Life Technologies, Cat.No. 14040) with 100 U/ml Heparin (Sigma, Cat.No. H-3149). The mononuclear fraction of the marrow was isolated on a Lymphoprep gradient (Nycomed Pharma, Cat.No. 1001967), by centrifugation at 2200 rpm for 30 min. After harvesting, the mononuclear fraction was washed once with culture medium and centrifuged at 1800 rpm for 10 min. Subsequently cells were counted and plated in culture medium at 8×10^6 cells/100 mm dish. hOB medium (all reagents obtained from Life Technologies): MEM w/o Phenol Red w/Glutamax (Cat.No. 041-93013) supplemented with 10% heat inactivated fetal calf serum (Cat.No. 10106) and 0.1% Penicillin/Streptomycin (Cat.No. 15140). Medium was changed the following day and the cells were cultured at 37° C. in 5%CO2 with medium change every 7 days. […]
To assess the effect of the compound on direct cellular coupling, microinjection experiments were performed according to the method described above. […] After 30 seconds, the number of cells containing dye was assessed. […] Then cellular coupling was re-assessed by microinjecting LY, and at this point the dye was only passed to an average of 7 cells (n=10).

ROS 17/2.8 cells = assay: Lucifer Yellow dye transfer in ROS 17/2.8 cells; assay type: cell-based, rat; settings: after 48 hours in 3-6% O2 (9 cells before)
Description: ROS 17/2.8 cells: Cells were cultured in 100 mm dishes at 37° C. with 5% CO2 and medium change every 2-3 days. ROS medium (all reagents obtained from Life Technologies) MEM (Cat.No. 31095) supplemented with 10% heat-inactivated calf serum (Cat.No. 16170), 1% NEAA (Cat.No. 11140), 1% Sodium Pyruvate (Cat.No. 11360), 1% L-Glutamine (Cat.No. 25030) and 0.1% Penicillin/Streptomycin (Cat.No. 15140). For video imaging experiments, cells were plated on coverslips at 2-3×10^5 cells/coverslip and cultured for 2-3 days before use.
The cells cultured on coverslips were placed in the microscope as described above. Microinjections were performed using the Eppendorf 5171 micromanipulator and the Eppendorf Transjector 5346 system. A micropipette was loaded with a 10 mM Lucifer Yellow (LY) solution (Sigma, Cat.No. L-0259). […] The excitation light for LY was 430 nm, and images were acquired as described above.
Similar experiments were performed with ROS cells. Basic coupling under physiological conditions in ROS cells was 12 cells (n=19). After 48 hours incubation in 3-6% O2, a reduction in dye transfer was seen to 9 cells (n=27).

Substance: Ac-D-Tyr-D-Pro-D-4Hyp-Gly-D-Ala-Gly-NH2 [Compound 2]
- effect on noradrenaline (300 nM) induced increase in phospho-inositol turnover [1]: no further effect
- In vivo activity [2]: +++ (key: +++: >60% increase in time until arrhythmia; ++: 30-50% increase in time until arrhythmia; +: 15-29% increase in time until arrhythmia; (+): ≦15% increase in time until arrythmia)
- dye transfer, number of cells (human osteoblast): 9 cells
- average dye transfer, number of cells (ROS 17/2.8 cells): 12 cells
